Source: US9855268B2, “Triazolo[4,5-d]pyrimidine derivatives” (Merck Patent GmbH, priority 2013, dated 2018)

What was measured:
[1] = target: T1, GCN2 (Homo sapiens, UniProt Q9P2K8); experiment: GCN2 enzyme assay (TR-FRET Lanthascreen, GFP-eIF2alpha phosphorylation); type: biochemical; details: 10 μM ATP, 80 nM GFP-eIF2a, 30 nM GCN2
Method in brief: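 Kinase reaction with 10 μM ATP and 80 nM GFP-labelled eIF2alpha substrate at room temperature, stopped with EDTA. Phospho-eIF2alpha detected by TR-FRET between antibody and GFP-substrate, excitation at 340 nm.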
Target sequence in this assay (Q9P2K8 whole entry, species assumed): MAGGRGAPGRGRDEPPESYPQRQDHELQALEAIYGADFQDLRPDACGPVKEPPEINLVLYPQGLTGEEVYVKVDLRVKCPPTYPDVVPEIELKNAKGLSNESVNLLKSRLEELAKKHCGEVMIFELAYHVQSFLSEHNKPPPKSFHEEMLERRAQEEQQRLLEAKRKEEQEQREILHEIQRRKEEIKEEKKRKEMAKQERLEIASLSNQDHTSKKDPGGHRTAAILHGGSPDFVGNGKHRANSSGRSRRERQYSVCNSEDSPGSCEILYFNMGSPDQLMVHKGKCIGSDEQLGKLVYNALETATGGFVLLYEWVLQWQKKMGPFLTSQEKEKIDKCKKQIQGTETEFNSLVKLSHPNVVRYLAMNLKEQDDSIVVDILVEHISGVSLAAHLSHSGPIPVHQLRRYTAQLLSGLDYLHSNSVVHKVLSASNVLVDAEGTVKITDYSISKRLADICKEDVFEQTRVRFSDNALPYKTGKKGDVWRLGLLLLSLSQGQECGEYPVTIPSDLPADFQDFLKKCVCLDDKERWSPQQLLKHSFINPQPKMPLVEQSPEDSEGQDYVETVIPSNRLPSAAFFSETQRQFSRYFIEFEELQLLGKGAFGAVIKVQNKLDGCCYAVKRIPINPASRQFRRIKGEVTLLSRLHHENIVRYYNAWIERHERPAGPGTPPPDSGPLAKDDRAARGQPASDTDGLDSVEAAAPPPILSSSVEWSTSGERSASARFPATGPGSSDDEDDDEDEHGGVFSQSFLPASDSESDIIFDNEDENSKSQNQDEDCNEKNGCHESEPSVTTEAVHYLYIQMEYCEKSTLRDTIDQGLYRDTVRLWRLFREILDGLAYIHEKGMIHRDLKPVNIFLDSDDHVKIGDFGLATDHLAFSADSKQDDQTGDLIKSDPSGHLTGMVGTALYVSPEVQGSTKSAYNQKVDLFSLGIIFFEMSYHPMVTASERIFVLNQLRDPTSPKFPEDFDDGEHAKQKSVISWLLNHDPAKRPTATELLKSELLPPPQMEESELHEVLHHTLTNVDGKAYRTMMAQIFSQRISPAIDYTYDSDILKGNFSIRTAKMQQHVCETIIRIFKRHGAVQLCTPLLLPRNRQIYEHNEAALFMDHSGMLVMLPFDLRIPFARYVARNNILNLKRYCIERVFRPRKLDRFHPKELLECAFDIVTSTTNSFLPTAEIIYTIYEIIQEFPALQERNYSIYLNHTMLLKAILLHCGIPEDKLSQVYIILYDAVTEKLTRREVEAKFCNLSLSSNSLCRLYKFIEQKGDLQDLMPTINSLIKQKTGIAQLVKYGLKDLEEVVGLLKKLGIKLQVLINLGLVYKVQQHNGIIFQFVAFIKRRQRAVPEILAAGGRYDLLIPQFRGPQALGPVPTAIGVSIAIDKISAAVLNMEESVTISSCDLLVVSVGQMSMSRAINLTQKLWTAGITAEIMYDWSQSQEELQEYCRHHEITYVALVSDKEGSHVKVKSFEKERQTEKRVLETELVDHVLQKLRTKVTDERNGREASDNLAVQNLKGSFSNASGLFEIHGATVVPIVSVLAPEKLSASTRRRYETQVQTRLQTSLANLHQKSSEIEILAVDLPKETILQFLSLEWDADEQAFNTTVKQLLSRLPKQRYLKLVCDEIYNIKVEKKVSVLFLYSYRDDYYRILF

[2] = target: GSK3α(h) (Homo sapiens, UniProt P49840); experiment: GSK3α radiometric kinase assay (33P-ATP, phospho GS2 peptide); type: biochemical; details: read-out: IC50 GSK3α (enzyme assay)
Method in brief: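 Human GSK3α incubated with 20 μM phospho-GS2 peptide in 8 mM MOPS pH 7,0, 10 mM Mg-acetate and [γ-33P]ATP (concentration as required), started with MgATP. After 40 minutes at room temperature, stopped with phosphoric acid; 33P incorporation measured by filtermat spotting and scintillation counting.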

[3] = target: GSK3β(h) (Homo sapiens, UniProt P49841); experiment: GSK3β radiometric kinase assay (33P-ATP, phospho GS2 peptide); type: biochemical; details: read-out: IC50 GSK3β (enzyme assay)
Description: GSK3β(h) is incubated with 8 mM MOPS pH 7,0, 0,2 mM EDTA, 20 μM
[…](p)EDEEE (phosphor GS2 peptide), 10 mM Mg-acetate and [gamma-33P-ATP](specific activity approx. 500 cpm/Pmol, concentration as required). The reaction is initiated by the addition of the MgATP. After incubation for 40 minutes at the room temperature, the Reaction is stopped by the addition of 3% phosphoric acid solution. 10 μL of reaction is then spotted onto a P30 filtermat and washed three times for 5 minutes in 50 mM phosphoric acid and once in methanol prior to drying and scintillation counting.

[4] = target: T1, GCN2; experiment: Cellular assay of GCN2 activity (phospho-eIF2alpha immunocytochemistry after tryptophanol); type: cell-based; design: endogenous in cells; host or cells: U2OS; details: Human U2OS cells, 2 h compound, 600 μM tryptophanol 30 min
Method in brief: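 Readout in human U2OS cells: compound pretreatment 2 h, then tryptophanol (600 μM final) for 30 min to trigger GCN2 signalling. Fixed, permeabilised cells quantified by immunocytochemistry for phosphorylation, normalised to DMSO controls as % effect; IC50 from concentration-response.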
Target sequence in this assay (Q9P2K8 whole entry): as the sequence (Q9P2K8 whole entry, species assumed) above

Chain of GSK3β(h) (P49841 whole entry): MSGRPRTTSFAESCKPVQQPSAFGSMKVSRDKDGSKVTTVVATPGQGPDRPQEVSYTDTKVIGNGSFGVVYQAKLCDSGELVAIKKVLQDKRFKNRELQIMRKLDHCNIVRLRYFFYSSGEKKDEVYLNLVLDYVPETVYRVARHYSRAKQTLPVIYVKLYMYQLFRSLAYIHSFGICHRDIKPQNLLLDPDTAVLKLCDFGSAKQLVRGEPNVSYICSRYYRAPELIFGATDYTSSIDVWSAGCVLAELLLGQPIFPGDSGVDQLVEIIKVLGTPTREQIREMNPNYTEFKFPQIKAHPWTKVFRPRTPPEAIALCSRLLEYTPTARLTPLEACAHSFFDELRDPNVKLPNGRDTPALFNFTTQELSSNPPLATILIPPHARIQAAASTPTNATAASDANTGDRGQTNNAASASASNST
Chain of GSK3α(h) (P49840 whole entry): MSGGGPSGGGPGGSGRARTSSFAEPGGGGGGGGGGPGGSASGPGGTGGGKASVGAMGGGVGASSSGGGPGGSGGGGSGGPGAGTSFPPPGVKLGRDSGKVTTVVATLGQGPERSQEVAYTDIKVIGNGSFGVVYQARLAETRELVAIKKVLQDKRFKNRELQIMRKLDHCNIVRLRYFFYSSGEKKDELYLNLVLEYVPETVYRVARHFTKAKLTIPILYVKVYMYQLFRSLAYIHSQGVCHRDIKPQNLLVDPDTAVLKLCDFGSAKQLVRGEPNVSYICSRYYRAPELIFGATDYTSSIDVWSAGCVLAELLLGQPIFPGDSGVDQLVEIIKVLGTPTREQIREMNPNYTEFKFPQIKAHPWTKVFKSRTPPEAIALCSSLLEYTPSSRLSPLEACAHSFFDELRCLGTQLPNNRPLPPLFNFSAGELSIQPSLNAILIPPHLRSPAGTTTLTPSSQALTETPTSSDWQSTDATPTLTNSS

Row | IC50 [1] [µM] | IC50 [2] [µM] | IC50 [3] [µM] | IC50 [4] [µM] | Structure (SMILES)
1 | < 1 | < 1 | < 1 | 5 to 10 | Cc1ccc2cc(-n3nnc4cnc(N[C@@H]5CCC[C@@H](C(N)=O)C5)nc43)ccc2n1 (relative stereo) [A192, (trans)-3-[3-(2-methyl-quinolin-6-yl)-3H-[1,2,3]triazolo[4,5-d]pyrimidin-5-ylamino]-cyclohexanecarboxylic acid amide]
2 | < 1 | < 1 | < 1 |  | NC(=O)[C@@H]1CC[C@@H](Nc2ncc3nnn(-c4ccc5c(c4)OCCO5)c3n2)C1 [A156, (1R,3R)-3-[3-(2,3-dihydro-benzo[1,4]dioxin-6-yl)-3H-[1,2,3]triazolo[4,5-d]pyrimidin-5-ylamino]-cyclopentanecarboxylic acid amide]
3 | < 1 | < 1 | < 1 |  | COCCn1cc(-n2nnc3cnc(N[C@@H]4CC[C@@H](C(N)=O)C4)nc32)cn1 [A159, (1R,3R)-3-{3-[1-(2-methoxy-ethyl)-1H-pyrazol-4-yl]-3H-[1,2,3]triazolo[4,5-d]-pyrimidin-5-ylamino}-cyclopentanecarboxylic acid amide]
4 | < 1 | < 1 | < 1 |  | NC(=O)[C@@H]1CC[C@@H](Nc2ncc3nnn(-c4ccc(OCCn5cccn5)cc4)c3n2)C1 [A160, (1R,3R)-3-{3-[4-(2-pyrazol-1-yl-ethoxy)-phenyl]-3H-[1,2,3]triazolo[4,5-d]-pyrimidin-5-ylamino}-cyclopentanecarboxylic acid amide]
5 | < 1 | < 1 | < 1 |  | NC(=O)[C@@H]1CC[C@@H](Nc2ncc3nnn(-c4ccc(I)cn4)c3n2)C1 [A177, (1R,3R)-3-[3-(5-iodo-pyridin-2-yl)-3H-[1,2,3]triazolo[4,5-d]pyrimidin-5-ylamino]-cyclopentanecarboxylic acid amide]
6 | < 1 | < 1 | < 1 |  | CCOc1ccc(-n2nnc3cnc(N[C@@H]4CC[C@@H](C(N)=O)C4)nc32)nc1 [A178, (1R,3R)-3-[3-(5-ethoxy-pyridin-2-yl)-3H-[1,2,3]triazolo[4,5-d]pyrimidin-5-ylamino]-cyclopentanecarboxylic acid amide]
7 | < 1 | < 1 | < 1 |  | CCOc1ccc(-n2nnc3cnc(N[C@@H]4CC[C@@H](C(N)=O)C4)nc32)cn1 [A179, (1R,3R)-3-[3-(6-ethoxy-pyridin-3-yl)-3H-[1,2,3]triazolo[4,5-d]pyrimidin-5-ylamino]-cyclopentanecarboxylic acid amide]
8 | < 1 | < 1 | < 1 |  | COc1ccc2cc(-n3nnc4cnc(N[C@@H]5CC[C@@H](C(N)=O)C5)nc43)ccc2n1 [A181, (1R,3R)-3-[3-(2-methoxy-quinolin-6-yl)-3H-[1,2,3]triazolo[4,5-d]pyrimidin-5-ylamino]-cyclopentanecarboxylic acid amide]
9 | < 1 | < 1 | < 1 |  | Cc1nc2cc(-n3nnc4cnc(N[C@@H]5CC[C@@H](C(N)=O)C5)nc43)ccc2n1C [A183, (1R,3R)-3-[3-(1,2-dimethyl-1H-benzimidazol-5-yl)-3H-[1,2,3]triazolo[4,5-d]-pyrimidin-5-ylamino]-cyclopentanecarboxylic acid amide]
10 | < 1 | < 1 | < 1 |  | NC(=O)[C@@H]1CC[C@@H](Nc2ncc3nnn(-c4ccc5ncccc5n4)c3n2)C1 [A194, (1R,3R)-3-(3-[1,5]naphthyridin-2-yl-3H-[1,2,3]triazolo[4,5-d]pyrimidin-5-ylamino)-cyclopentanecarboxylic acid amide]
11 | < 1 | < 1 | < 1 |  | N#CCCn1cc(-c2ccc(-n3nnc4cnc(N[C@@H]5CC[C@@H](C(N)=O)C5)nc43)cc2)cn1 [A217, (1R,3R)-3-(3-{4-[1-(2-cyano-ethyl)-1H-pyrazol-4-yl]-phenyl}-3H-[1,2,3]triazolo[4,5-d]pyrimidin-5-ylamino)-cyclopentanecarboxylic acid amide]
12 | 1 to 5 | < 1 | < 1 |  | COCCn1cc(-c2ccc(-n3nnc4cnc(N[C@@H]5CC[C@@H](C(N)=O)C5)nc43)nc2)cn1 [A219, (1R,3R)-3-(3-{5-[1-(2-methoxy-ethyl)-1H-pyrazol-4-yl]-pyridin-2-yl}-3H-[1,2,3]triazolo[4,5-d]pyrimidin-5-ylamino)-cyclopentanecarboxylic acid amide]
13 | < 1 | < 1 | < 1 |  | COCCn1cc(-c2cccc(-n3nnc4cnc(N[C@@H]5CC[C@@H](C(N)=O)C5)nc43)c2)cn1 [A222, (1R,3R)-3-(3-{3-[1-(2-methoxy-ethyl)-1H-pyrazol-4-yl]-phenyl}-3H-[1,2,3]triazolo[4,5-d]pyrimidin-5-ylamino)-cyclopentanecarboxylic acid amide]
14 | < 1 | < 1 | < 1 |  | CCOCCn1cc(-c2ccc(-n3nnc4cnc(N[C@@H]5CC[C@@H](C(N)=O)C5)nc43)cn2)cn1 [A229, (1R,3R)-3-(3-{6-[1-(2-ethoxy-ethyl)-1H-pyrazol-4-yl]-pyridin-3-yl}-3H-[1,2,3]triazolo[4,5-d]pyrimidin-5-ylamino)-cyclopentanecarboxylic acid amide]
15 | < 1 | < 1 | < 1 |  | CC(C)(O)Cn1cc(-c2ccc(-n3nnc4cnc(N[C@@H]5CC[C@@H](C(N)=O)C5)nc43)cc2)cn1 [A233, (1R,3R)-3-(3-{4-[1-(2-hydroxy-2-methyl-propyl)-1H-pyrazol-4-yl]-phenyl}-3H-[1,2,3]triazolo[4,5-d]pyrimidin-5-ylamino)-cyclopentanecarboxylic acid amide]
16 | < 1 | < 1 | < 1 |  | NC(=O)[C@@H]1CC[C@@H](Nc2ncc3nnn(-c4ccc(-c5cnn(CCn6ncccc6=O)c5)cc4)c3n2)C1 [A237, (1R,3R)-3-[3-(4-{1-[2-(6-oxo-6H-pyridazin-1-yl)-ethyl]-1H-pyrazol-4-yl}-phenyl)-3H-[1,2,3]triazolo[4,5-d]pyrimidin-5-ylamino]-cyclopentanecarboxylic acid amide]
17 | < 1 | < 1 | < 1 |  | CS(=O)(=O)N1CC[C@@H](Nc2ncc3nnn(-c4ccc5ncccc5c4)c3n2)C1 [A269, ((R)-1-methanesulfonyl-pyrrolidin-3-yl)-(3-quinolin-6-yl-3H-[1,2,3]triazolo[4,5-d]pyrimidin-5-yl)-amine]
18 | < 1 | < 1 | < 1 |  | NC(=O)[C@@H]1CC[C@@H](Nc2ncc3nnn(-c4ccc(OCC5CCNCC5)cc4)c3n2)C1 [A279, (1R,3R)-3-{3-[4-(piperidin-4-ylmethoxy)-phenyl]-3H-[1,2,3]triazolo[4,5-d]pyrimidin-5-ylamino}-cyclopentanecarboxylic acid amide]
19 | < 1 | < 1 | < 1 |  | CCOc1ccc(-n2nnc3cnc(N[C@@H]4CC[C@@H](c5nnc(C)o5)C4)nc32)cc1 [A281, [3-(4-ethoxy-phenyl)-3H-[1,2,3]triazolo[4,5-d]pyrimidin-5-yl]-[(1R,3R)-3-(5-methyl-[1,3,4]oxadiazol-2-yl)-cyclopentyl]-amine]
20 | < 1 | < 1 | 1 to 5 |  | CCOc1ccc(-n2nnc3cnc(N[C@@H]4CC[C@@H](c5nnc(N)o5)C4)nc32)cc1 [A283, [(1R,3R)-3-(5-amino-[1,3,4]oxadiazol-2-yl)-cyclopentyl]-[3-(4-ethoxy-phenyl)-3H-[1,2,3]triazolo[4,5-d]pyrimidin-5-yl]-amine]
21 | < 1 | < 1 | 1 to 5 |  | COc1ccc(-n2nnc3cnc(N[C@@H]4CCN(C(N)=O)C4)nc32)cc1 [A285, (R)-3-[3-(4-Methoxy-phenyl)-3H-[1,2,3]triazolo[4,5-d]pyrimidin-5-ylamino]-pyrrolidine-1-carboxylic acid amide]
22 | < 1 | < 1 | < 1 |  | CCOc1ccc(-n2nnc3cnc(N[C@@H]4CC[C@@H](C(=O)NS(C)(=O)=O)C4)nc32)cc1 [A286, N-{(1R,3R)-3-[3-(4-ethoxy-phenyl)-3H-[1,2,3]triazolo[4,5-d]-pyrimidin-5-ylamino]-cyclopentanecarbonyl}-methanesulfonamide]
23 | < 1 | < 1 | < 1 |  | CC(C)(O)c1ccc(-n2nnc3cnc(N[C@@H]4CC[C@@H](C(N)=O)C4)nc32)cc1 [A289, (1R,3R)-3-{3-[4-(1-hydroxy-1-methyl-ethyl)-phenyl]-3H-[1,2,3]triazolo[4,5-d]pyrimidin-5-ylamino}-cyclopentanecarboxylic acid amide]
